# Test results: ChEMBL document CHEMBL1134352, “Perspectives in animal health: old targets and new opportunities” (J Med Chem, 2001)
# Columns and labels:
# [1] = Acute toxicity in mice was determined; format: organism-based; settings: mouse, in vivo
# [2] = species: Canis familiaris; assay: Flea efficacy in dog; format: functional, Canis lupus familiaris
# [3] = Lethal dose in mouse was determined; format: toxicity, organism-based; settings: in vivo
# [4] = Lethal dose in dog was determined; format: toxicity, organism-based, Canis lupus familiaris; settings: in vivo
# [5] = biological target: AF2 neuropeptide receptor; assay: Compound was evaluated for inhibition of binding to Ascaris suum AF2 neuropeptide receptor
# [6] = system: Mus musculus; assay: Lethality in mouse, by administering the compound at 200 mg/kg; decreased toxicity; format: functional, organism-based; parameters: dose 200 mg/kg
# [7] = system: Felis catus; assay: Percent reduction of fleas on cats by topical application for 1 week; format: functional
# [8] = Oral bioavailability in dog; format: ADME, organism-based, Canis lupus familiaris; settings: in vivo
# [9] = system: Canis familiaris; assay: In vivo reduction of flea infestation was determined after an oral administration of 15 mg/kg in dog challenged with 100 fleas at day 6; format: functional, Canis lupus familiaris
# [10] = system: Canis familiaris; assay: In vivo reduction of flea infestation was determined after an oral administration of 15 mg/kg in dog challenged with 100 fleas at day 4; format: functional, Canis lupus familiaris
# [11] = system: Canis familiaris; assay: In vivo reduction of flea infestation was determined after an oral administration of 15 mg/kg in dog challenged with 100 fleas at day 8; format: functional, Canis lupus familiaris
# [12] = system: Canis familiaris; assay: In vivo reduction of flea infestation was determined after an oral administration of 15 mg/kg in dog challenged with 100 fleas at day 0; format: functional, Canis lupus familiaris
# [13] = Lethal concentration of compound was determined against fleas; settings: pulicinae
# [14] = species: Canis familiaris; assay: Minimum dose that cause toxicity in dog; format: functional, Canis lupus familiaris
# [15] = species: Canis familiaris; assay: Flea efficacy in dog
# [16] = system: Equus caballus; assay: Compound was evaluated for gastric acid suppression on intravenous administration of a single dose up to 7 hr; format: functional, Stomach
smiles,measurement,setting,value
CO[C@H]1C[C@H](O[C@H]2[C@H](C)O[C@@H](OC3/C(C)=C/CC4C[C@@H](C[C@]5(C=C[C@H](C)[C@@H](C(C)C)O5)O4)OC(=O)[C@@H]4C=C(C)[C@@H](O)[C@H]5OC/C(=C\C=C\[C@@H]3C)[C@]54O)C[C@@H]2OC)O[C@@H](C)[C@@H]1O (some centres not stated),LD50,[1],160 mg/kg
C=C(C)[C@H]1C(=O)c2c3c(cc4c5c(n1c24)[C@@]1(C)C(CC[C@H]2[C@](C)(/C=C/C=C(\C)C(=O)N(C)CC)[C@@H](O)CC[C@@]21C)C5)C1=CC(C)(C)OC(C)(C)C1[C@@H]3O (some centres not stated),Efficacy,[2],0.1 µg/mL
CN1C(=O)[C@]23CC4CC(C)(C)[C@@]5(C[C@@]41CN2CC[C@@]3(C)O)C(=O)Nc1c5ccc2c1OC=CC(C)(C)O2 (some centres not stated),LD50,[3],< 15 mg/kg
same,LD50,[4],0.5 mg/kg
N=c1sc(-c2ccccn2)nn1-c1c(Cl)cc(Cl)cc1Cl,IC50,[5],3000 nM
N#Cc1ccnc(-c2nn(-c3c(Cl)cc(C(F)(F)F)cc3Cl)c(=N)s2)c1,IC50,[5],10 nM
CC[C@@]12C(=O)N(C)[C@@]3(CCC(C)(C)[C@]4(CNc5c4ccc4c5OC=CC(C)(C)O4)C3)CN1CC[C@@]2(C)O,Lethality,[6],decreased toxicity
C/C=C(\C)C(=O)O[C@H]1C[C@@H](OC(C)=O)[C@@]2(C(=O)OC)CO[C@H]3[C@@H](O)[C@@](C)([C@]45O[C@@]4(C)[C@@H]4C[C@H]5O[C@@H]5OC=C[C@@]54O)[C@H]4[C@]1(CO[C@]4(O)C(=O)OC)[C@@H]32 [AZADIRACHTIN A],Reduction,[7],53%
CC(C(=O)O)c1ccc2c(c1)[nH]c1ccc(Cl)cc12 (configuration not stated) [CARPROFEN],bioavailability,[8],~90%
C=C(C)[C@H]1C(=O)c2c3c(cc4c5c(n1c24)[C@@]1(C)C(CC[C@H]2[C@](C)(/C=C/C=C(\C)C(=O)O)[C@@H](O)CC[C@@]21C)C5)C1=CC(C)(C)OC(C)(C)C1[C@@H]3O (some centres not stated) [NOD ACID A],Efficacy,[9],51%
same,Efficacy,[10],97%
same,Efficacy,[11],0%
same,Efficacy,[12],99%
same,LC50,[13],0.68 µg/mL
same,Dose,[14],0.006 mg/kg
C=C(C)[C@H]1C(=O)c2c3c(cc4c5c(n1c24)[C@@]1(C)C(CC[C@H]2[C@](C)(/C=C/C=C(\C)C(=O)N4CCN(S(C)(=O)=O)CC4)[C@@H](O)CC[C@@]21C)C5)C1=CC(C)(C)OC(C)(C)C1[C@@H]3O (some centres not stated) [NODULISPORAMIDE],Efficacy,[15],0.01 µg/mL
COc1ccc2[nH]c([S+]([O-])Cc3ncc(C)c(OC)c3C)nc2c1 (configuration not stated) [OMEPRAZOLE],Inhibition,[16],>90%
